IC50 data for six compounds are collected here from PMC5983305, “Bioactive Pyridone Alkaloids from a Deep-Sea-Derived Fungus Arthrinium sp. UJNMF0008” (Marine Drugs, 2018).

For assay [1], the system named is Mycobacterium smegmatis ATCC 607. Put plainly: Antimicrobial assay, liquid growth inhibition in 96-well microplates. Conditions: Mycolicibacterium smegmatis; Mycobacterium smegmatis ATCC607; OD 600 nm after 12 h at 37 °C; read-out: Antibacterial activity IC50, MS. It is filed as cell-based. On the procedure:
(§1) The antimicrobial activity was assayed against the Gram-positive bacterial strains Mycobacterium smegmatis ATCC 607 and Staphylococcus aureus ATCC 25923, Gram-negative Escherichia coli ATCC 8739 and Pseudomonas aeruginosa ATCC 9027 and yeast Candida albicans ATCC10231 by liquid growth inhibition in 96-well microplates. Briefly, precultures of the tested microorganisms were made by inoculating 10 mL of medium (LB medium for bacteria and YM medium for fungus) and incubated for 24 h at 37 °C for bacteria or 48 h at 28 °C for fungus. Then, the cell density was adjusted to 10^4−10^5 cfu mL^−1 by the corresponding broth. An aliquot of 200 μL of the microbial suspension was distributed in each well containing 2-fold serial dilution of the tested compounds. The plate was incubated at 37 °C for 12 h for the bacteria or at 28 °C for 48 h for the fungus, and the optical density of each well was measured at 600 nm spectrophotometrically. IC50 values were defined as the concentration of a compound resulting in a 50% decrease in the number of microbial cultures compared to the blank control. The experiment was run in three replicates.

Assay [2] relates to Staphylococcus aureus ATCC 25923. Described as above. The note with it: Staphylococcus aureus ATCC25923; OD 600 nm after 12 h at 37 °C; read-out: Antibacterial activity IC50, SA. It is filed as cell-based. On the procedure:
as §1

Broadly, the IC50 is the concentration needed to halve the response being measured.

The structures appear in SMILES notation.

In the case of `CO/N=C(\C(=O)N[C@@H]1C(=O)N2C(C(=O)O)=C(CSc3nc(=O)c(=O)[nH]n3C)CS[C@H]12)c1csc(N)n1` [Ceftriaxone sodium, reference compound], the IC50 in assay [1] and in assay [2] was less than 1 µM throughout.
For `CC1CCC2C(C=CC(C)C2C(=O)c2c3c(c[nH]c2=O)C2(O)CCC(O)C(O)C2O3)C1` (stereo not drawn) [Compound 3, Arthpyrone F], the half-maximal inhibitory concentration (IC50) worked out at 11.4 µM in assay [1] and 8.97 µM in assay [2].
For the compound `C[C@@H]1CC[C@H]2[C@H](C(=O)c3c(=O)[nH]cc4c5c(oc34)[C@H](O)[C@H](O)CC5)[C@H](C)C=C[C@@H]2C1` [Compound 4, Arthpyrone G], the IC50 is greater than 50 µM in assay [1] and 42.8 µM in assay [2].
The corresponding values for `CO[C@H]1[C@H](O)CC[C@](O)(c2c[nH]c(=O)c(C(=O)[C@H]3[C@@H]4CC[C@@H](C)C[C@H]4C=C[C@H]3C)c2O)[C@@H]1O` [Compound 5, Arthpyrone H] are 19.4 µM and 8.37 µM.
The corresponding values for `CO[C@]1(c2c[nH]c(=O)c(C(=O)[C@H]3[C@@H]4CC[C@@H](C)C[C@H]4C=C[C@H]3C)c2O)CC[C@@H](O)[C@H](O)[C@H]1O` [Compound 6, Arthpyrone I] are 35.3 µM and 14.1 µM.
As for `CC1CCC2C(C=CC(C)C2C(=O)c2c(O)c(C3(O)CCC(O)C4OC43)c[nH]c2=O)C1` (stereo not drawn) [Compound 9, apiosporamide], the IC50 in assay [1] was 2.2 µM; in assay [2] it was 1.66 µM.
